Literature values, collected in patent US20230310464A1, “USE OF C[…] THE TREATMENT OF SEIZURES ASSOCIATED WITH RARE […] SYNDROMES RELATED TO BRAIN INJURY” (GW Research Limited, priority 2020, published 2023).

What was measured:
[1] = tested on: seizures in patients with Lennox Gastaut syndrome; conditions: 100% CBD, half also with HIE, Morales et al.; cited from earlier work
[2] = tested on: HI injury in an animal model of NHIE; conditions: CBD combined with therapeutic hypothermia, GB 2504263; cited from earlier work
[3] = tested on: patients with Dravet and Lennox-Gastaut syndrome; conditions: purified pharmaceutical formulation of CBD, three trials; cited from earlier work

In the case of `C=C(C)[C@@H]1CCC(C)=C[C@H]1c1c(O)cc(CCCCC)cc1O` [CBD, cannabidiol], the “effect on seizures in LGS patients (in words)” value [1] is given as “a reduction in seizures was obtained”, the “neuroprotection following HI injury (in words)” value [2] is given as “synergistic in neuroprotection” and the “efficacy in randomized control trials (in words)” value [3] is given as “showed efficacy”.
